Blank lines part the entries; values can stand above or below the compound they belong to.
Columns and labels:
[1] = test system: Human CFU-GM; assay: Growth of human bone marrow hematopoietic progenitors after DAAA and flow cytometry; assay type: cell-based
Method: In an attempt to examine cytosolic ALDH on a single-cell basis, leukemia cell lines and bone marrow cells were incubated with the fluorescent substrate DAAA, washed, and subjected to flow cytometry. The cell lines and plastic nonadherent mononuclear marrow cells were incubated with 50 μM DAAA at 10^6 cells/ml for 30 minutes at 37° C. After washing twice, some mononuclear marrow cells were treated with fluorescent monoclonal antibodies (Becton-Dickinson, Mountain View, Calif.), as previously described ([…] et al., Blood 74:1517, 1989) to study cytosolic ALDH activity of CD34^+, CD19^+, and CD5^+ marrow cells. The cells were sorted on a Epics 753 Dual Laser Flow Cytometer (Coulter Electronics, Hialeah, Fla.) equipped with two 90-5 water cooled argon lasers (Coherent, Palo Alto, Calif.). Dansyl fluorescence was excited at both 351.1 nm and 363.8 nm using a multiline ultraviolet filter, and was detected at 521 nm. Cytosolic ALDH activity was estimated by the corrected mean fluorescence intensity (MFI) ([…] et al., Blood 75:1947, 1990; […], 1989, supra] of dansyl staining, which equals the mean fluorescence of unstained cells subtracted from the mean fluorescence of cells treated with DAAA. The mean fluorescence level represents the average channel value for a given sample on the flow cytometer. To confirm that cellular dansyl fluorescence was the result of the activity of cytosolic ALDH, L1210/CPA cells were incubated with 50 μM 4-(diethylamino) benzaldehyde (DEAB) for 15 minutes at 37° C. prior to the DAAA incubations to inhibit cytosolic ALDH activity. […] (J. E. Russo et al., Biochem Pharmacol 37:1639, 1988) L1210/CPA cells were also incubated with 50 μM dansyl glycine (DG) alone (Sigma, St. Louis, Mo.) at 10^6 cells/ml for 30 minutes at 37° C. […] The data in Table 1 show the results of flow cytometry sorting of human and mouse marrow cells based on their fluorescence intensity after incubation with DAAA. The assays of progenitor content is also shown. Isolation of bone marrow cells with high ALDH expression by fluorescence sorting based on DAAA was enriched for hematopoietic progenitors capable of both in vitro and in vivo growth. The 5% of human bone marrow cells with highest dansyl fluorescence produced substantially more CFU-GM than the 5% of cells with lowest dansyl fluorescence (p=0.007, T-test). Similarly, using DAAA-derived fluorescence, it was possible to obtain a composition that is enriched for CFU-GM (p=0.03) and the more primitive CFU-S (p=0.01) from mouse bone marrow.

[2] = test system: Mouse CFU-GM; assay: Growth of mouse bone marrow progenitors isolated by DAAA and flow cytometry; assay type: cell-based
Method: (§1) In an attempt to examine cytosolic ALDH on a single-cell basis, leukemia cell lines and bone marrow cells were incubated with the fluorescent substrate DAAA, washed, and subjected to flow cytometry. The cell lines and plastic nonadherent mononuclear marrow cells were incubated with 50 μM DAAA at 10^6 cells/ml for 30 minutes at 37° C. After washing twice, some mononuclear marrow cells were treated with fluorescent monoclonal antibodies (Becton-Dickinson, Mountain View, Calif.), as previously described ([…] et al., Blood 74:1517, 1989) to study cytosolic ALDH activity of CD34^+, CD19^+, and CD5^+ marrow cells. […] Dansyl fluorescence was excited at both 351.1 nm and 363.8 nm using a multiline ultraviolet filter, and was detected at 521 nm. Cytosolic ALDH activity was estimated by the corrected mean fluorescence intensity (MFI) ([…] et al., Blood 75:1947, 1990; […], 1989, supra] of dansyl staining, which equals the mean fluorescence of unstained cells subtracted from the mean fluorescence of cells treated with DAAA. The mean fluorescence level represents the average channel value for a given sample on the flow cytometer. To confirm that cellular dansyl fluorescence was the result of the activity of cytosolic ALDH, L1210/CPA cells were incubated with 50 μM 4-(diethylamino) benzaldehyde (DEAB) for 15 minutes at 37° C. prior to the DAAA incubations to inhibit cytosolic ALDH activity. […]

[3] = test system: Mouse CFU-S (day 8); assay: Mouse CFU-S (day 8) of bone marrow cells isolated by DAAA and flow cytometry; assay type: in vivo
Method: as §1

[4] = test system: L1210/CPA cells; assay: Flow cytometry of dansyl fluorescence in cells incubated with the compound; assay type: cell-based, mouse; settings: L1210/CPA cells incubated with 50 μM dansyl glycine alone, 10^6 cells/ml, 30 minutes, 37° C.; FIG. 1E
Method: In an attempt to examine cytosolic ALDH on a single-cell basis, leukemia cell lines and bone marrow cells were incubated with the fluorescent substrate DAAA, washed, and subjected to flow cytometry. The cell lines and plastic nonadherent mononuclear marrow cells were incubated with 50 μM DAAA at 10^6 cells/ml for 30 minutes at 37° C. After washing twice, some mononuclear marrow cells were treated with fluorescent monoclonal antibodies (Becton-Dickinson, Mountain View, Calif.), as previously described (M. B. Kastan et al., Blood 74:1517, 1989) to study cytosolic ALDH activity of CD34^+, CD19^+, and CD5^+ marrow cells. The cells were sorted on a Epics 753 Dual Laser Flow Cytometer (Coulter Electronics, Hialeah, Fla.) equipped with two 90-5 water cooled argon lasers (Coherent, Palo Alto, Calif.). Dansyl fluorescence was excited at both 351.1 nm and 363.8 nm using a multiline ultraviolet filter, and was detected at 521 nm. […]

[5] = test system: cytosolic ALDH; settings: J. E. Russo et al., Biochem Pharmacol 37:1639, 1988; cited from earlier work
[6] = test system: cells; settings: in vitro and in vivo; J. E. Russo et al., 1988; cited from earlier work
[7] = 5% cells with the highest fluorescence after DAAA
[8] = 5% of cells with the lowest fluorescence after DAAA

harm to cells / progenitor growth after DAAA treatment ([1]; human bone marrow cells treated with DAAA and processed by flow cytometry (not sorted)): did not appear to harm cells
Colonies/10^5 cells, Human CFU-GM, Stained MNMC ([1]; mononuclear marrow cells incubated with DAAA and processed (but not sorted) by flow cytometry, unstained MNMC 163 ± 5): 155 ± 5 Colonies/10^5 cells
Compound: CN(C)c1cccc2c(S(=O)(=O)NCC=O)cccc12 [DAAA, N-dansyl aminoacetaldehyde]
Colonies/10^5 cells, Human CFU-GM, Dansyl+ MNMC [1, 7]: 216 ± 13 Colonies/10^5 cells
Colonies/10^5 cells, Human CFU-GM, Dansyl- MNMC [1, 8]: 67 ± 20 Colonies/10^5 cells
Colonies/10^5 cells, Mouse CFU-GM, Dansyl+ [2, 7]: 800 ± 185 Colonies/10^5 cells
Colonies/10^5 cells, Mouse CFU-GM, Dansyl- [2, 8]: 250 ± 60 Colonies/10^5 cells
Colonies/10^5 cells, Mouse CFU-S (day 8), Dansyl+ [3, 7]: 23.5 ± 1 Colonies/10^5 cells
Colonies/10^5 cells, Mouse CFU-S (day 8), Dansyl- [3, 8]: 7 ± 1.3 Colonies/10^5 cells

Compound: CN(C)c1cccc2c(S(=O)(=O)NCC(=O)O)cccc12 [dansyl glycine]
dansyl fluorescence of cells [4]: no detectable fluorescence

Compound: CCN(CC)c1ccc(C=O)cc1 [DEAB, 4-(diethylamino) benzaldehyde]
inhibition of cytosolic ALDH [5]: specific, competitive inhibitor of cytosolic ALDH
toxicity to cells [6]: nontoxic to cells in vitro and in vivo
